Measured values taken from ChEMBL document CHEMBL1629456, “ApoA-I mimetic peptides promote pre-β HDL formation in vivo causing remodeling of HDL and triglyceride accumulation at higher dose” (Bioorg Med Chem, 2010).
*1 amine or outer side, *2 acyl side, *3 side chain or, on linkers, in order; H or OH if unused. Where a SMILES comes first, the peptide text is derived from it. [ ]: non-standard residue; d: D form. Gly(oct-7-en-1-yl) = C=CCCCCCC[C@H](N)C(=O)O; Ala(5-hexenyl) = C=CCCCCC[C@H](N)C(=O)O; dNle(6-vinyl) = C=CCCCC[C@@H](N)C(=O)O; X1 = CCCCCCC[C@H](N[*:1])C(=O)[*:2]

Target: Phospholipid-transporting ATPase ABCA1 (Mus musculus, UniProt P41233)
Sequence (P41233 whole entry): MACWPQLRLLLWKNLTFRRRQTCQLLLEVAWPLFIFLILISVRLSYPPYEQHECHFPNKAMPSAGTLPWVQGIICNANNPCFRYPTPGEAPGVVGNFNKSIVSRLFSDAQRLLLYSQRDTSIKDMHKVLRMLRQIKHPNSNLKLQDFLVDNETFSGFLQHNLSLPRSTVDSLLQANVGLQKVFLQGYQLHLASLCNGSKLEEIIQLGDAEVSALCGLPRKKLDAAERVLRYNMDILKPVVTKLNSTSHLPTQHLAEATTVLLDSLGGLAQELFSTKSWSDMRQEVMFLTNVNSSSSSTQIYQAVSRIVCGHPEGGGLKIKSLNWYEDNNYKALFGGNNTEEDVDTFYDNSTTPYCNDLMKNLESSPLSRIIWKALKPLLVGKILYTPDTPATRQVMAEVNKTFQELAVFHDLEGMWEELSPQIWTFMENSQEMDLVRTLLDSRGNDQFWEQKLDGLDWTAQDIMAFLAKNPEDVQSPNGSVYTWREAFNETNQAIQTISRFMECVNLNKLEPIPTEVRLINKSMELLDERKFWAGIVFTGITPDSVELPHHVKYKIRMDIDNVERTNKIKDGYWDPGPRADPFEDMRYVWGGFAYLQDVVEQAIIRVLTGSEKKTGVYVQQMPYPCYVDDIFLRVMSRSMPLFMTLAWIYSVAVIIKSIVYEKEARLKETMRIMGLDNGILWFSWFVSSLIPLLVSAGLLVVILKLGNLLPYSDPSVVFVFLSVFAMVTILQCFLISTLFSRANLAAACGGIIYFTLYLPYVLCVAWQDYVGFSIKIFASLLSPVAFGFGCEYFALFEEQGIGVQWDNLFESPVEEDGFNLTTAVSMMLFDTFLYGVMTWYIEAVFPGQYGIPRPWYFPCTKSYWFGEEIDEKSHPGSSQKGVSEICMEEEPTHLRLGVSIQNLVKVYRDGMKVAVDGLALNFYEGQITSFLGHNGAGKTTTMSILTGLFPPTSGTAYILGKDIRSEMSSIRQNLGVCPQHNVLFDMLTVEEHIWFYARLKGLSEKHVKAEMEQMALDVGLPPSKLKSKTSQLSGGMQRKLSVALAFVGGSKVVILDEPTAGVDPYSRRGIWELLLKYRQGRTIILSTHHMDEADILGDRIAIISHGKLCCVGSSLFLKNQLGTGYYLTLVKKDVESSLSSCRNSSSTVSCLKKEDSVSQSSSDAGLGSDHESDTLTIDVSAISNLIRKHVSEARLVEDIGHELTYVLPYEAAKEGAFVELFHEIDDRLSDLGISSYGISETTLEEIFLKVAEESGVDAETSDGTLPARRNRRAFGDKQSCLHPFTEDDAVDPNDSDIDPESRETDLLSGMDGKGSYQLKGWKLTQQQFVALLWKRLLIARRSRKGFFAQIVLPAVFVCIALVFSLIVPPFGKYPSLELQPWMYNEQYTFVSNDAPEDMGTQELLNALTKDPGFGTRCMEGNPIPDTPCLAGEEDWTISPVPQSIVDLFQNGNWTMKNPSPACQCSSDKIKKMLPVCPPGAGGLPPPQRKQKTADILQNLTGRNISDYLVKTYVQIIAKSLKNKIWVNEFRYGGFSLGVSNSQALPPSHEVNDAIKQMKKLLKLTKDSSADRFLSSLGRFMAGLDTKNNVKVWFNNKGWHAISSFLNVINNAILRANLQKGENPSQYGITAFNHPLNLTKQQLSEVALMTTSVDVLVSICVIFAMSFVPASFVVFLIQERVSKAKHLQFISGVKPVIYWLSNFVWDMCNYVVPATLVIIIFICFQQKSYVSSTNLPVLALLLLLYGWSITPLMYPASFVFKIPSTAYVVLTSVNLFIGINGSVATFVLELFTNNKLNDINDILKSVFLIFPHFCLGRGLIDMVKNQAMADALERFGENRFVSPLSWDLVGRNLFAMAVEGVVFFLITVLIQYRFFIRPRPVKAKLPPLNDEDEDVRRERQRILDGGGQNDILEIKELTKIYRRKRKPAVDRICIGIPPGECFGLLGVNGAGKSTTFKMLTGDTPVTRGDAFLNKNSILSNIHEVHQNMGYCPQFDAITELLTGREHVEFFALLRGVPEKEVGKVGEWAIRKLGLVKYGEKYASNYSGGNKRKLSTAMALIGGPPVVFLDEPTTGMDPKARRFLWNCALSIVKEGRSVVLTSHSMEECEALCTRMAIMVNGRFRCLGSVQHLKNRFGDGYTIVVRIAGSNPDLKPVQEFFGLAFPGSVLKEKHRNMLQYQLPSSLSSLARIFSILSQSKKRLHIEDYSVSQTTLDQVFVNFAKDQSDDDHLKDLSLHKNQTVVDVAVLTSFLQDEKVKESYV
Assay: Induction of ABCA1-mediated [3H]cholesterol efflux in mouse RAW 264.7 macrophages after 24 hrs

| Compound | EC50 |
| --- | --- |
| C=CCCCCC[C@H](NC(=O)[C@H](CCC(N)=O)NC(=O)[C@H](CCCCN)NC(=O)[C@H](CC(C)C)NC(=O)[C@H](C)NC(=O)[C@H](CCC(=O)O)NC(=O)[C@H](CC(C)C)NC(=O)[C@H](CCCCCC=C)NC(=O)[C@H](CCC(=O)O)NC(=O)[C@H](CC(N)=O)NC(=O)[C@H](CC(C)C)NC(=O)[C@H](CCCCN)NC(=O)[C@H](CCC(=O)O)NC(=O)[C@H](CCCN=C(N)N)NC(=O)[C@H](Cc1ccccc1)NC(=O)[C@H](CCC(=O)O)NC(=O)[C@H](CC(=O)O)NC(=O)[C@H](CC(C)C)NC(=O)[C@@H](NC(=O)[C@@H]1CCCN1C(C)=O)C(C)C)C(=O)N[C@@H](CC(C)C)C(=O)N[C@@H](CCCCN)C(N)=O (Ac-PVLDEFREKLNE[Ala(5-hexenyl)]LEALKQ[Ala(5-hexenyl)]LK-NH2) | 0.9 µM |
| C=CCCCC[C@@H](NC(=O)[C@H](CCC(N)=O)NC(=O)[C@H](CCCCN)NC(=O)[C@H](CC(C)C)NC(=O)[C@H](C)NC(=O)[C@H](CCC(=O)O)NC(=O)[C@H](CC(C)C)NC(=O)[C@H](CCC(=O)O)NC(=O)[C@H](CCC(=O)O)NC(=O)[C@H](CC(N)=O)NC(=O)[C@H](CC(C)C)NC(=O)[C@H](CCCCN)NC(=O)[C@H](CCC(=O)O)NC(=O)[C@H](CCCNC(=N)N)NC(=O)[C@H](Cc1ccccc1)NC(=O)[C@H](CCC(=O)O)NC(=O)[C@H](CC(=O)O)NC(=O)[C@H](CC(C)C)NC(=O)[C@@H](NC(=O)[C@@H]1CCCN1C(C)=O)C(C)C)C(=O)N[C@@H](CC(C)C)C(=O)N[C@@H](CCCCN)C(N)=O | > 100 µM |
| C=CCCCC[C@@H](NC(=O)[C@H](CCCCN)NC(=O)[C@H](CCC(N)=O)NC(=O)[C@H](CCCCN)NC(=O)[C@H](CC(C)C)NC(=O)[C@H](C)NC(=O)[C@H](CCC(=O)O)NC(=O)[C@H](CC(C)C)NC(=O)[C@H](CCC(=O)O)NC(=O)[C@H](CCC(=O)O)NC(=O)[C@H](CC(N)=O)NC(=O)[C@H](CC(C)C)NC(=O)[C@H](CCCCN)NC(=O)[C@H](CCC(=O)O)NC(=O)[C@H](CCCNC(=N)N)NC(=O)[C@H](Cc1ccccc1)NC(=O)[C@H](CCC(=O)O)NC(=O)[C@H](CC(=O)O)NC(=O)[C@H](CC(C)C)NC(=O)[C@@H](NC(=O)[C@@H]1CCCN1C(C)=O)C(C)C)C(=O)N[C@@H](CCCCN)C(N)=O | > 100 µM |
| CCCCCCC[C@H](NC(=O)[C@H](CCC(=O)O)NC(=O)[C@H](CC(N)=O)NC(=O)[C@H](CC(C)C)NC(=O)[C@H](CCCCN)NC(=O)[C@H](CCC(=O)O)NC(=O)[C@H](CCCN=C(N)N)NC(=O)[C@H](Cc1ccccc1)NC(=O)[C@H](CCC(=O)O)NC(=O)[C@H](CC(=O)O)NC(=O)[C@H](CC(C)C)NC(=O)[C@@H](NC(=O)[C@@H]1CCCN1C(C)=O)C(C)C)C(=O)N[C@@H](CC(C)C)C(=O)N[C@@H](CCC(=O)O)C(=O)N[C@@H](C)C(=O)N[C@@H](CC(C)C)C(=O)N[C@@H](CCCCN)C(=O)N[C@@H](CCC(N)=O)C(=O)N[C@@H](CCCCN)C(=O)N[C@@H](CC(C)C)C(=O)N[C@@H](CCCCN)C(N)=O (Ac-PVLDEFREKLNE[X1]LEALKQKLK-NH2) | 0.7 µM |
| C=CCCC[C@@H](NC(=O)[C@H](CCC(=O)O)NC(=O)[C@H](CC(=O)O)NC(=O)[C@H](CC(C)C)NC(=O)[C@@H](NC(=O)[C@@H]1CCCN1C(C)=O)C(C)C)C(=O)N[C@@H](CCCNC(=N)N)C(=O)N[C@@H](CCC(=O)O)C(=O)N[C@@H](CCCCN)C(=O)N[C@@H](CC(C)C)C(=O)N[C@@H](CC(N)=O)C(=O)N[C@@H](CCC(=O)O)C(=O)N[C@@H](CCC(=O)O)C(=O)N[C@@H](CC(C)C)C(=O)N[C@@H](CCC(=O)O)C(=O)N[C@@H](C)C(=O)N[C@@H](CC(C)C)C(=O)N[C@@H](CCCCN)C(=O)N[C@@H](CCC(N)=O)C(=O)N[C@@H](CCCCN)C(=O)N[C@@H](CC(C)C)C(=O)N[C@@H](CCCCN)C(N)=O | > 100 µM |

The next lines start with the values.

| EC50 | Compound |
| --- | --- |
| 0.7 µM | C=CCCCCCC[C@H](NC(=O)[C@H](CCC(=O)O)NC(=O)[C@H](CC(N)=O)NC(=O)[C@H](CC(C)C)NC(=O)[C@H](CCCCN)NC(=O)[C@H](CCC(=O)O)NC(=O)[C@H](CCCN=C(N)N)NC(=O)[C@H](Cc1ccccc1)NC(=O)[C@H](CCC(=O)O)NC(=O)[C@H](CC(=O)O)NC(=O)[C@H](CC(C)C)NC(=O)[C@@H](NC(=O)[C@@H]1CCCN1C(C)=O)C(C)C)C(=O)N[C@@H](CC(C)C)C(=O)N[C@@H](CCC(=O)O)C(=O)N[C@@H](C)C(=O)N[C@@H](CC(C)C)C(=O)N[C@@H](CCCCN)C(=O)N[C@@H](CCC(N)=O)C(=O)N[C@@H](CCCCN)C(=O)N[C@@H](CC(C)C)C(=O)N[C@@H](CCCCN)C(N)=O (Ac-PVLDEFREKLNE[Gly(oct-7-en-1-yl)]LEALKQKLK-NH2) |
| 31 µM | C=CCCCC[C@@H](NC(=O)[C@H](CCC(=O)O)NC(=O)[C@H](CC(N)=O)NC(=O)[C@H](CC(C)C)NC(=O)[C@H](CCCCN)NC(=O)[C@H](CCC(=O)O)NC(=O)[C@H](CCCN=C(N)N)NC(=O)[C@H](Cc1ccccc1)NC(=O)[C@H](CCC(=O)O)NC(=O)[C@H](CC(=O)O)NC(=O)[C@H](CC(C)C)NC(=O)[C@@H](NC(=O)[C@@H]1CCCN1C(C)=O)C(C)C)C(=O)N[C@@H](CC(C)C)C(=O)N[C@@H](CCC(=O)O)C(=O)N[C@@H](C)C(=O)N[C@@H](CC(C)C)C(=O)N[C@@H](CCCCN)C(=O)N[C@@H](CCC(N)=O)C(=O)N[C@@H](CCCCN)C(=O)N[C@@H](CC(C)C)C(=O)N[C@@H](CCCCN)C(N)=O (Ac-PVLDEFREKLNE[dNle(6-vinyl)]LEALKQKLK-NH2) |
| > 100 µM | C=CCCCCC[C@@H](NC(=O)[C@H](CCC(N)=O)NC(=O)[C@H](CCCCN)NC(=O)[C@H](CC(C)C)NC(=O)[C@H](C)NC(=O)[C@H](CCC(=O)O)NC(=O)[C@H](CC(C)C)NC(=O)[C@H](CCC(=O)O)NC(=O)[C@H](CCC(=O)O)NC(=O)[C@H](CC(N)=O)NC(=O)[C@H](CC(C)C)NC(=O)[C@H](CCCCN)NC(=O)[C@H](CCC(=O)O)NC(=O)[C@H](CCCN=C(N)N)NC(=O)[C@H](Cc1ccccc1)NC(=O)[C@H](CCC(=O)O)NC(=O)[C@H](CC(=O)O)NC(=O)[C@H](CC(C)C)NC(=O)[C@@H](NC(=O)[C@@H]1CCCN1C(C)=O)C(C)C)C(=O)N[C@@H](CC(C)C)C(=O)N[C@@H](CCCCN)C(N)=O |
| 2.4 µM | C=CCCCCC[C@H](NC(=O)[C@H](CCC(=O)O)NC(=O)[C@H](CC(N)=O)NC(=O)[C@H](CC(C)C)NC(=O)[C@H](CCCCN)NC(=O)[C@H](CCC(=O)O)NC(=O)[C@H](CCCNC(=N)N)NC(=O)[C@H](Cc1ccccc1)NC(=O)[C@H](CCC(=O)O)NC(=O)[C@H](CC(=O)O)NC(=O)[C@H](CC(C)C)NC(=O)[C@@H](NC(=O)[C@@H]1CCCN1C(C)=O)C(C)C)C(=O)N[C@@H](CC(C)C)C(=O)N[C@@H](CCC(=O)O)C(=O)N[C@@H](C)C(=O)N[C@@H](CC(C)C)C(=O)N[C@@H](CCCCN)C(=O)N[C@@H](CCC(N)=O)C(=O)N[C@@H](CCCCN)C(=O)N[C@@H](CC(C)C)C(=O)N[C@@H](CCCCN)C(N)=O (Ac-PVLDEFREKLNE[Ala(5-hexenyl)]LEALKQKLK-NH2) |
| > 100 µM | C=CCCCC[C@@H](NC(=O)[C@@H](NC(=O)[C@@H]1CCCN1C(C)=O)C(C)C)C(=O)N[C@@H](CC(=O)O)C(=O)N[C@@H](CCC(=O)O)C(=O)N[C@@H](Cc1ccccc1)C(=O)N[C@@H](CCCNC(=N)N)C(=O)N[C@@H](CCC(=O)O)C(=O)N[C@@H](CCCCN)C(=O)N[C@@H](CC(C)C)C(=O)N[C@@H](CC(N)=O)C(=O)N[C@@H](CCC(=O)O)C(=O)N[C@@H](CCC(=O)O)C(=O)N[C@@H](CC(C)C)C(=O)N[C@@H](CCC(=O)O)C(=O)N[C@@H](C)C(=O)N[C@@H](CC(C)C)C(=O)N[C@@H](CCCCN)C(=O)N[C@@H](CCC(N)=O)C(=O)N[C@@H](CCCCN)C(=O)N[C@@H](CC(C)C)C(=O)N[C@@H](CCCCN)C(N)=O |
